Experiments:
[1] = Solubility of drug substance in water and simulated gastric fluids; format: physicochemical
[2] = system: DNA-PK autophosphorylation in cancer cell lines; settings: cited from earlier work
[3] = system: six xenograft mouse models of human cancer; assay: Xenograft mouse models of human cancer, combination with ionizing radiation; format: in vivo; settings: all models, oral administration with fractionated radiation 2 Gy x 5
Method: (§1) The therapeutic relevance of DNA-PK inhibition by the drug substance as such was investigated in vivo in combination with ionizing radiation (IR), a clinically established DSB-inducing treatment. The drug substance was tested for activity in six xenograft mouse models of human cancer. The models were chosen from different cancer indications (colon, lung, head and neck, pancreatic), and histological subtypes (adeno, squamous, large cell). Ionizing radiation was administered using a fractionated schedule of 2 Gy per day administered over five consecutive days (total radiation dose=10 Gy). […] 10 min prior to each fraction of radiation (ONC397-1-2AZ, ONC397-1-3AZ, ONC397-1-4AZ, ONC397-1-5AZ, ONC397-1-8AZ).
(§2) The radiotherapy enhancing effect was quantified across the tested models by the time to reaching 400% initial volume for the 150 mg/kg study arms. The resulting Kaplan-Meier plots were compared by the log-rank test.

[4] = system: A549; settings: 150 mg/kg oral, 10 min prior to each 2 Gy fraction, 5 days (10 Gy)
Method: as §1, §2

[5] = system: NCI-H460; settings: 150 mg/kg oral, 10 min prior to each 2 Gy fraction, 5 days (10 Gy)
Method: as §1, §2

[6] = system: HCT116; settings: 150 mg/kg oral, 10 min prior to each 2 Gy fraction, 5 days (10 Gy)
Method: as §1, §2

[7] = target: DNA-dependent protein kinase (DNA-PK) (Homo sapiens, UniProt P78527); settings: cited from earlier work

COc1ccc([C@@H](O)c2cc(-c3ncnc4cc(N5CCOCC5)ccc34)c(F)cc2Cl)nn1 [drug substance, (S)-[2-chloro-4-fluoro-5-(7-morpholin-4-yl-quinazolin-4-yl)phenyl]-(6-methoxy-pyridazin-3-yl)methanol]
solubility in water and simulated gastric fluids [1]: poor solubility | inhibition of DNA-PK autophosphorylation [2]: potent inhibition | enhancement of the radiation effect [3]: strong enhancement of the radiation effect | enhancement ratio (time to reaching 400% initial volume) [4]: 1.5 | enhancement ratio (time to reaching 400% initial volume) [5]: 2.6 | enhancement ratio (time to reaching 400% initial volume) [6]: 1.5 | inhibition of DNA-PK activity [7]: potent and selective inhibitor

Source: patent US11559490B2, “Pharmaceutical formulation” (Merck Patent GmbH, priority 2017, dated 2023)
